Test results from patent publication US20100137346A1, “DESFE[…] ACTINIDE DEC[…]” (priority 2006, published 2010).
Read-outs that look alike come from different tables or passages of the source.

Assay: Chelator-induced uranium excretion (urine + bile, 24 h) in bile duct-cannulated rat model
Format: in vivo
Details: for uranium clearance, in words: given IP immediately post uranyl acetate, doses per Table 1
Procedure: Desferrithiocin Analogue Induced Excretion of Uranium. In order to compare results with previous chelator-induced iron excretion data, the uranium clearance studies were carried out in a bile duct-cannulated rat model. The animals were given uranyl acetate dihydrate SC at a dose of 5 mg/kg (the actual dose of uranium is 2.8 mg/kg). Bile and urine samples were collected for 24 hours after dosing. Kidneys were removed from selected animals and tissue uranium concentration measured. At least three animals were utilized in each experimental group. Data from two separate control studies (uranyl acetate/ no chelator) have now been combined for a total of 14 control animals. All uranium concentrations were measured using ICPMS. The data are reported as the total quantity of uranium excreted [urine +bile]; the mode of excretion [urine/bile] is also given. In addition the percentage of the administered dose of uranium cleared and chelator-induced uranium excretion vs the controls is also given. Four positive controls were evaluated: DTPA (13, Table 1) given as its trisodium calcium salt, DFO (14), N,N′-bis(2hydroxybenzyl)ethylenediamine-N,N′-diacetic acid, monosodium salt (NaHBED, 15) and the hydroxypyridone CP94 (16) shown to bind uranium [Pashalidis, et al., Effective complex formation in the interaction of 1,2-dimethyl-3-hydroxypyrid-4-one (Deferiprone or L1) with uranium(VI), Journal of Radioanalytical and Nuclear Chemistry 1999; 242:181-184.] The total metal cleared after 24 h in control rats was 10% of the administered dose. When DTPA, 13, was given IP or PO at 300 μmol/kg immediately after uranium, the excretion was 17% and 8% of the administered dose respectively (p>0.05). However, when the drug was given IP at a dose of 600 μmol/kg immediately post-metal, the uranium excretion was significant, 20% (p<0.005). This is consistent with previously published data using a similar animal model.[Domingo, et al., Comparative effects of the chelators sodium 4,5-dihydroxybenzene-1,3-disulfonate (Tiron) and diethylenetriaminepentaacetic acid (DTPA) on acute uranium nephrotoxicity in rats, Toxicology 1997; 118:49-59] DFO (14) and CP94 (16) given IP immediately post uranyl acetate were ineffective.
Desferrithiocin Analogue-Induced Excretion of Uranium. In order to compare results with previous chelator-induced iron excretion data, the uranium clearance studies were carried out in a bile duct-cannulated rat model. The animals were given uranyl acetate dihydrate SC at a dose of 5 mg/kg (the actual dose of uranium is 2.8 mg/kg). Bile and urine samples were collected for 24 hours after dosing. Kidneys were removed from selected animals and tissue uranium concentration measured. At least three animals were utilized in each experimental group. Data from two separate control studies (uranyl acetate/ no chelator) are combined for a total of 14 control animals. All uranium concentrations were measured using ICPMS. The data are reported as the total quantity of uranium excreted [urine +bile]; the mode of excretion [urine/bile] is also given. In addition the percentage of the administered dose of uranium cleared and chelator-induced uranium excretion vs the controls is also given. Four positive controls were evaluated: DTPA (1, Table 1) given as its trisodium calcium salt, DFO (2), N,N -bis(2-hydroxybenzyl)ethylenediamine-N,N-diacetic acid, monosodium salt (NaHBED, 3) and the hydroxypyridone CP94 (4) shown to bind uranium. The total metal cleared after 24 h in control rats was 10% of the administered dose. When DTPA, 1, was given IP or PO at 300 μmol/kg immediately after uranium, the excretion was 17% and 8% of the administered dose respectively (p>0.05). However, when the drug was given IP at a dose of 600 μmol/kg immediately post metal, the uranium excretion was significant, 20% (p<0.005). This is consistent with previously published data using a similar animal model.^2 DFO (2) and CP94 (4) given IP immediately post uranyl acetate were ineffective.

[1] = Rattus norvegicus, ip, 24 h, 300 μmol/kg IP Immediate, read-out: Chelator-Induced U Excretion/Control
[2] = Rattus norvegicus, ip, 24 h, 300 μmol/kg IP 0.5 h Post, read-out: Chelator-Induced U Excretion/Control
[3] = Rattus norvegicus, po, 24 h, 300 μmol/kg PO Immediate, read-out: Chelator-Induced U Excretion/Control

Structure (SMILES): CC(=O)N(O)CCCNC(=O)CCC(=O)N(O)CCCCCNC(=O)CCC(=O)N(O)CCCN
- % of Administered Dose Cleared (300 μmol/kg IP Immediate): 16%
- Uranium Excretion (300 μmol/kg IP Immediate): 438 ± 191 µg/kg
- Uranium Excretion [urine/bite] (300 μmol/kg IP Immediate): 100/0
- response vs control in vivo at 300 µmol/kg [1]: 160%

Structure (SMILES): COCCOCCOCCOc1ccc(C2=N[C@](C)(C(=O)O)CS2)c(O)c1
- % of Administered Dose Cleared (300 μmol/kg IP Immediate): 22%
- Uranium Excretion (300 μmol/kg IP Immediate): 626 ± 123 µg/kg
- Uranium Excretion [urine/bite] (300 μmol/kg IP Immediate): 35/65
- response vs control in vivo at 300 µmol/kg [1]: 220%

Structure (SMILES): COc1ccc(C2=N[C@H](C(=O)O)CS2)c(O)c1
- % of Administered Dose Cleared (300 μmol/kg IP 0.5 h Post): 33%
- Uranium Excretion (300 μmol/kg IP 0.5 h Post): 917 ± 177 µg/kg
- Uranium Excretion [urine/bite] (300 μmol/kg IP 0.5 h Post): 16/84
- % of Administered Dose Cleared (300 μmol/kg IP 0.5 h Pre): 29%
- Uranium Excretion (300 μmol/kg IP 0.5 h Pre): 815 ± 211 µg/kg
- Uranium Excretion [urine/bite] (300 μmol/kg IP 0.5 h Pre): 48/52
- % of Administered Dose Cleared (300 μmol/kg IP 2 h Post): 30%
- Uranium Excretion (300 μmol/kg IP 2 h Post): 847 ± 335 µg/kg
- Uranium Excretion [urine/bite] (300 μmol/kg IP 2 h Post): 46/54
- % of Administered Dose Cleared (300 μmol/kg IP 4 h Post): 16%
- Uranium Excretion (300 μmol/kg IP 4 h Post): 444 ± 119 µg/kg
- Uranium Excretion [urine/bite] (300 μmol/kg IP 4 h Post): 66/34
- % of Administered Dose Cleared (300 μmol/kg IP Immediate): 30%
- Uranium Excretion (300 μmol/kg IP Immediate): 838 ± 166 µg/kg
- Uranium Excretion [urine/bite] (300 μmol/kg IP Immediate): 64/36
- % of Administered Dose Cleared (300 μmol/kg PO 2 h Post): 18%
- Uranium Excretion (300 μmol/kg PO 2 h Post): 507 ± 182 µg/kg
- Uranium Excretion [urine/bite] (300 μmol/kg PO 2 h Post): 53/47
- % of Administered Dose Cleared (300 μmol/kg PO Immediate): 23%
- Uranium Excretion (300 μmol/kg PO Immediate): 642 ± 101 µg/kg
- Uranium Excretion [urine/bite] (300 μmol/kg PO Immediate): 43/57
- % of Administered Dose Cleared (300 μmol/kg SC Immediate): 40%
- Uranium Excretion (300 μmol/kg SC Immediate): 1130 ± 246 µg/kg
- Uranium Excretion [urine/bite] (300 μmol/kg SC Immediate): 13/87
- % of Administered Dose Cleared (600 μmol/kg PO 0.5 h Post): 25%
- Uranium Excretion (600 μmol/kg PO 0.5 h Post): 698 ± 166 µg/kg
- Uranium Excretion [urine/bite] (600 μmol/kg PO 0.5 h Post): 24/76
- % of Administered Dose Cleared (600 μmol/kg PO 1 h Post): 26%
- Uranium Excretion (600 μmol/kg PO 1 h Post): 723 ± 126 µg/kg
- Uranium Excretion [urine/bite] (600 μmol/kg PO 1 h Post): 28/72
- response vs control in vivo at 300 µmol/kg [2]: 330%
- response vs control in vivo at 300 µmol/kg (Rattus norvegicus, ip, 24 h, 300 μmol/kg IP 0.5 h Pre, read-out: Chelator-Induced U Excretion/Control): 290%
- response vs control in vivo at 300 µmol/kg (Rattus norvegicus, ip, 24 h, 300 μmol/kg IP 2 h Post, read-out: Chelator-Induced U Excretion/Control): 300%
- response vs control in vivo at 300 µmol/kg (Rattus norvegicus, ip, 24 h, 300 μmol/kg IP 4 h Post, read-out: Chelator-Induced U Excretion/Control): 160%
- response vs control in vivo at 300 µmol/kg [1]: 300%
- response vs control in vivo at 300 µmol/kg (Rattus norvegicus, po, 24 h, 300 μmol/kg PO 2 h Post, read-out: Chelator-Induced U Excretion/Control): 180%
- response vs control in vivo at 300 µmol/kg [3]: 230%
- response vs control in vivo at 600 µmol/kg (Rattus norvegicus, po, 24 h, 600 μmol/kg PO 0.5 h Post, read-out: Chelator-Induced U Excretion/Control): 250%
- response vs control in vivo at 600 µmol/kg (Rattus norvegicus, po, 24 h, 600 μmol/kg PO 1 h Post, read-out: Chelator-Induced U Excretion/Control): 260%
- response vs control in vivo at 300 µmol/kg (Rattus norvegicus, sc, 24 h, 300 μmol/kg SC Immediate, read-out: Chelator-Induced U Excretion/Control): 400%

Structure (SMILES): COc1ccc(C2=N[C@](C)(C(=O)O)CS2)c(O)c1
- % of Administered Dose Cleared (300 μmol/kg IP 0.5 h Post): 15%
- Uranium Excretion (300 μmol/kg IP 0.5 h Post): 413 ± 148 µg/kg
- Uranium Excretion [urine/bite] (300 μmol/kg IP 0.5 h Post): 37/63
- % of Administered Dose Cleared (300 μmol/kg IP Immediate): 20%
- Uranium Excretion (300 μmol/kg IP Immediate): 568 ± 133 µg/kg
- Uranium Excretion [urine/bite] (300 μmol/kg IP Immediate): 59/41
- response vs control in vivo at 300 µmol/kg [2]: 150%
- response vs control in vivo at 300 µmol/kg [1]: 200%

Structure (SMILES): CC1(C)SC(c2ccccc2O)=NC1C(=O)O (stereo in doubt) [Compound 17, (S)-4,5-dihydro-5,5-dimethyl-2-(2-hydroxyphenyl)-4-thiazolecarboxylic acid]
- % of Administered Dose Cleared (300 μmol/kg IP Immediate): 26%
- uranium excretion, in words (IP 300 μmol/kg, given 0.5 h post metal): insignificant

Structure (SMILES): CCC1=C(O)C(=O)CCN1CC [CP94, reference compound]
- uranium clearance, in words: ineffective

Structure (SMILES): O=C([O-])CN(CCN(CC(=O)O)Cc1ccccc1O)Cc1ccccc1O.[Na+] [NaHBED, N,N′-bis(2hydroxybenzyl)ethylenediamine-N,N′-diacetic acid, monosodium salt, reference compound]
- uranium clearance, in words: marginally improved clearance

Structure (SMILES): O=C(O)CN(CCN(CC(=O)O)CC(=O)O)CCN(CC(=O)O)CC(=O)O [drawing 4]
- % of Administered Dose Cleared (300 μmol/kg IP Immediate): 17%
- Uranium Excretion (300 μmol/kg IP Immediate): 469 ± 271 µg/kg
- Uranium Excretion [urine/bite] (300 μmol/kg IP Immediate): 99/1
- % of Administered Dose Cleared (300 μmol/kg PO Immediate): 6%
- Uranium Excretion (300 μmol/kg PO Immediate): 235 ± 205 µg/kg
- Uranium Excretion [urine/bite] (300 μmol/kg PO Immediate): [100/0]
- % of Administered Dose Cleared (600 μmol/kg IP Immediate): 20%
- Uranium Excretion (600 μmol/kg IP Immediate): 546 ± 147 µg/kg
- Uranium Excretion [urine/bite] (600 μmol/kg IP Immediate): [100/0]
- response vs control in vivo at 300 µmol/kg [1]: 170%
- response vs control in vivo at 600 µmol/kg (Rattus norvegicus, ip, 24 h, 600 μmol/kg IP Immediate, read-out: Chelator-Induced U Excretion/Control): 200%
- response vs control in vivo at 300 µmol/kg [3]: 80%

Structure (SMILES): O=C([O-])CN(CCN(CC(=O)O)Cc1ccccc1O)Cc1ccccc1O.[Na+] [drawing 6]
- % of Administered Dose Cleared (150 μmol/kg IP Immediate): 17%
- Uranium Excretion (150 μmol/kg IP Immediate): 483 ± 119 µg/kg
- Uranium Excretion [urine/bite] (150 μmol/kg IP Immediate): 97/3
- response vs control in vivo at 150 µmol/kg (Rattus norvegicus, ip, 24 h, 150 μmol/kg IP Immediate, read-out: Chelator-Induced U Excretion/Control): 170%

Structure (SMILES): CCC1=C(O)C(=O)CCN1CC [drawing 7]
- % of Administered Dose Cleared (450 μmol/kg IP Immediate): 11%
- Uranium Excretion (450 μmol/kg IP Immediate): 302 ± 171 µg/kg
- Uranium Excretion [urine/bite] (450 μmol/kg IP Immediate): 100/0
- response vs control in vivo at 450 µmol/kg (Rattus norvegicus, ip, 24 h, 450 μmol/kg IP Immediate, read-out: Chelator-Induced U Excretion/Control): 110%

Structure (SMILES): COc1ccc(C2=N[C@@](C)(C(=O)O)CS2)c(O)c1 [drawing 8]
- % of Administered Dose Cleared (300 μmol/kg IP 0.5 h Post): 15%
- Chelator-Induced U Excretion/Control (300 μmol/kg IP 0.5 h Post): 1.5
- Uranium Excretion (300 μmol/kg IP 0.5 h Post): 413 ± 148 µg/kg
- Uranium Excretion [urine/bite] (300 μmol/kg IP 0.5 h Post): [37/63]
- Chelator-Induced U Excretion/Control (300 μmol/kg IP Immediate): 2.0
- Uranium Excretion (300 μmol/kg IP Immediate): 568 ± 133 µg/kg
- Uranium Excretion [urine/bite] (300 μmol/kg IP Immediate): 59/41

Structure (SMILES): CC1(C)SC(c2ccccc2O)=N[C@@H]1C(=O)O [drawing 9]
- % of Administered Dose Cleared (300 μmol/kg IP 0.5 h Post): 7%
- Uranium Excretion (300 μmol/kg IP 0.5 h Post): 200 ± 47 µg/kg
- Uranium Excretion [urine/bite] (300 μmol/kg IP 0.5 h Post): [37/63]
- % of Administered Dose Cleared (300 μmol/kg IP Immediate): 26%
- Uranium Excretion (300 μmol/kg IP Immediate): 743 ± 189 µg/kg
- Uranium Excretion [urine/bite] (300 μmol/kg IP Immediate): 8/92
- response vs control in vivo at 300 µmol/kg [2]: 70%
- response vs control in vivo at 300 µmol/kg [1]: 260%

Structure (SMILES): C[C@@]1(C(=O)O)CSC(c2ccc(O)cc2O)=N1 [drawing 10]
- % of Administered Dose Cleared (300 μmol/kg IP Immediate): 19%
- Uranium Excretion (300 μmol/kg IP Immediate): 523 ± 180 µg/kg
- Uranium Excretion [urine/bite] (300 μmol/kg IP Immediate): 92/8
- response vs control in vivo at 300 µmol/kg [1]: 190%
